Measured values published in patent US6352718B1, “Vasopressin antagonist formulation and process” (American Cyanamid Company, priority 1999, dated 2002).

Test: Solubility in orally acceptable oils and aqueous systems
Format: physicochemical
Conditions: in conventional, orally acceptable oils, such as safflower or sesame seed oils, and in aqueous systems

solubility: highly insoluble
Structure (SMILES): Cc1ccc(F)cc1C(=O)Nc1ccc(C(=O)N2Cc3cccn3Cc3ccccc32)c(Cl)c1 [VPA-985, N-[4-(5H-pyrrolo[2,1-c][1,4]benzodiazepin-10(11H)ylcarbonyl)-3-chlorophenyl]-5-fluoro-2-methylbenzamide]
